Reference: ChEMBL document CHEMBL1146766, “Synthesis of 3a,4-dihydro-3H-[1]benzopyrano[4,3-c]isoxazoles, displaying combined 5-HT uptake inhibiting and alpha2-adrenoceptor antagonistic activities. Part 2: Further exploration on the cinnamyl moiety” (Bioorg Med Chem Lett, 2004)

How the values were obtained:
[1] = molecular target: T1, Alpha-2A adrenergic receptor (Homo sapiens, UniProt P08913); assay: In vitro binding affinity to the human alpha-2A adrenergic receptor
T1 sequence (P08913 whole entry): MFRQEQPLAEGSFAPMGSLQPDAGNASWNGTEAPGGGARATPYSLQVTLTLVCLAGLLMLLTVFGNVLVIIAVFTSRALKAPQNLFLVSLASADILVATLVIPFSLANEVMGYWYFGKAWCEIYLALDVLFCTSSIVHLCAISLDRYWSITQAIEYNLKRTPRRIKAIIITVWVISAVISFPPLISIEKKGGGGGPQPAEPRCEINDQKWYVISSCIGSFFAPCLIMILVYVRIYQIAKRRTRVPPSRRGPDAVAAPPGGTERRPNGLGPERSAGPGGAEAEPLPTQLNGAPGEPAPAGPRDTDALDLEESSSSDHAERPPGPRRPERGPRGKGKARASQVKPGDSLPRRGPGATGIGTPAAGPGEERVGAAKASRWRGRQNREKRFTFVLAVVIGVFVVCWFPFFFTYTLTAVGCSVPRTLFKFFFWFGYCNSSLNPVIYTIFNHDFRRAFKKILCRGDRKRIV

[2] = molecular target: T2, Alpha-2C adrenergic receptor (Homo sapiens, UniProt P18825); assay: In vitro binding affinity to human alpha-2C adrenergic receptor
T2 sequence (P18825 whole entry): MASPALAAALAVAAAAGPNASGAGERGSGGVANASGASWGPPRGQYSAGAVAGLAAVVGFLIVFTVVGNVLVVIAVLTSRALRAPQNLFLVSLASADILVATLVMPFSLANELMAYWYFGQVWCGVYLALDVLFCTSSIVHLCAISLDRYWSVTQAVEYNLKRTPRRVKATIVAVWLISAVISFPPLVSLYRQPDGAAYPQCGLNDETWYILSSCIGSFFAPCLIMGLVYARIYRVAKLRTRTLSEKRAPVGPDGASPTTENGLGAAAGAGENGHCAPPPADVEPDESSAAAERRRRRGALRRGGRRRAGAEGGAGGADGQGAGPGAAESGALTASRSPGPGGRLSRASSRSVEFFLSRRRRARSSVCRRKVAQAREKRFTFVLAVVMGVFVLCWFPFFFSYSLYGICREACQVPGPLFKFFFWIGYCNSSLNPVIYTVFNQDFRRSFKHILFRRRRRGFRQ

[3] = molecular target: Adrenergic receptor alpha-2 (Rattus norvegicus) (UniProt P22086+P19328+P22909); assay: Inhibition ofmedetomidine-induced loss of righting, which evaluates the ability to block central alpha-2-adrenoceptor; type: functional
[4] = molecular target: Sodium-dependent serotonin transporter (Homo sapiens, UniProt P31645); assay: In vitro binding affinity towards human serotonin transporter
Sequence of Sodium-dependent serotonin transporter (P31645 whole entry): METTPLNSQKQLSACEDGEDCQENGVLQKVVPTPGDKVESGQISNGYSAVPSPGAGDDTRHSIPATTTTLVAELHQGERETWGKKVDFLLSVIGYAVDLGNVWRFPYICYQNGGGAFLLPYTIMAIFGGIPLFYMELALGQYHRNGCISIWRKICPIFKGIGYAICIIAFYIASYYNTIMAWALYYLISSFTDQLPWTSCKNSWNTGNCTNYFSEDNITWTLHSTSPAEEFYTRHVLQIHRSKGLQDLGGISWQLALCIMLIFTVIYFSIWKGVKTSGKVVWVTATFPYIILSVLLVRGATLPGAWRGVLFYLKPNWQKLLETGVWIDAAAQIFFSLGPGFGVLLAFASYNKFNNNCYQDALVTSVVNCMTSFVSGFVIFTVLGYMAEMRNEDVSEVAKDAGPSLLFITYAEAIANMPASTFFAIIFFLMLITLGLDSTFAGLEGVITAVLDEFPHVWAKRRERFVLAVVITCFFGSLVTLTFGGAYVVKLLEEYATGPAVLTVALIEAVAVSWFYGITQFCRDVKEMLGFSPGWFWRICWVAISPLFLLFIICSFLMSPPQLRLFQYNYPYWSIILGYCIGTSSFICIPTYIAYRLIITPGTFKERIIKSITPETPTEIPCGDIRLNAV

| Structure (SMILES) | Ki [1] | Ki [2] | ED50 [3] | Ki [4] |
| --- | --- | --- | --- | --- |
| COc1cc2c(cc1OC)C1=NO[C@@H](CN3CCN(C/C(C)=C/c4ccc(F)cc4)CC3)[C@@H]1CO2 | 3.4 nM | 0.7 nM | 10 mg/kg |  |
| COc1cc2c(cc1OC)C1=NO[C@@H](CN3CCN(C/C=C/c4ccccc4F)CC3)[C@@H]1CO2 | 2.9 nM | 2.8 nM | 2.5 mg/kg | 13 nM |
| COc1cc2c(cc1OC)C1=NO[C@@H](CN3CCN(C/C=C/c4ccc(F)cc4)CC3)[C@@H]1CO2 | 9 nM | 23 nM | 4.7 mg/kg | 5.6 nM |
| COc1cc2c(cc1OC)C1=NO[C@@H](CN3CCN(C/C=C/c4ccc(Cl)cc4)CC3)[C@@H]1CO2 | 69 nM | 10 nM | 10 mg/kg | 1.3 nM |
| COc1cc2c(cc1OC)C1=NO[C@@H](CN3CCN(C/C(C)=C/c4cccc(F)c4F)CC3)[C@@H]1CO2 | 3 nM | 0.7 nM | 10 mg/kg |  |
| COc1cc2c(cc1OC)C1=NO[C@@H](CN3CCN(C/C(C)=C/c4cccc(F)c4)CC3)[C@@H]1CO2 | 1.1 nM | 0.2 nM | 0.63 mg/kg |  |
| COc1cc2c(cc1OC)C1=NO[C@@H](CN3CCN(C/C(C)=C/c4cccnc4)CC3)[C@@H]1CO2 | 22 nM | 2.1 nM | 3.1 mg/kg | 63 nM |
| COc1cc2c(cc1OC)C1=NO[C@@H](CN3CCN(C/C(C)=C/c4ccccc4)CC3)[C@@H]1CO2 |  | 0.2 nM | 1.3 mg/kg |  |
| COc1cc2c(cc1OC)C1=NO[C@@H](CN3CCN(C/C=C/c4ccccc4)CC3)[C@@H]1CO2 |  |  |  | 8.3 nM |
| COc1cc2c(cc1OC)C1=NO[C@@H](CN3CCN(C/C=C/c4cccc(F)c4)CC3)[C@@H]1CO2 | 5.9 nM | 0.7 nM | 5 mg/kg | 2.5 nM |
| COc1cc2c(cc1OC)C1=NO[C@@H](CN3CCN(C/C=C\c4ccccc4)CC3)[C@@H]1CO2 |  |  | > 10 mg/kg | 35 nM |
| COc1cc2c(cc1OC)C1=NO[C@@H](CN3CCN(C/C(C)=C/c4cc(F)ccc4F)CC3)[C@@H]1CO2 | 0.3 nM | 0.2 nM | 2.5 mg/kg |  |
| COc1ccccc1/C=C(\C)CN1CCN(C[C@@H]2ON=C3c4cc(OC)c(OC)cc4OC[C@H]32)CC1 | 1 nM | 0.4 nM | 2 mg/kg |  |

Results, then the molecule that gave them:

| Ki [1] | Ki [2] | ED50 [3] | Ki [4] | Structure (SMILES) |
| --- | --- | --- | --- | --- |
| 1.9 nM | 0.6 nM | > 2.5 mg/kg | 7.6 nM | COc1cc2c(cc1OC)C1=NO[C@@H](CN3CCN(C/C=C(\C)c4ccc(O)cc4)CC3)[C@@H]1CO2 |
| 9.3 nM | 0.8 nM | > 2.5 mg/kg | 5.4 nM | COc1cc2c(cc1OC)C1=NO[C@@H](CN3CCN(C/C=C(\C)c4ccc(F)cc4F)CC3)[C@@H]1CO2 |
| 5.2 nM | 0.9 nM | > 2.5 mg/kg | 51 nM | COc1cc2c(cc1OC)C1=NO[C@@H](CN3CCN(C/C=C(\C)c4ccccc4OC)CC3)[C@@H]1CO2 |
| 1.4 nM | 0.3 nM | 1.25 mg/kg | 4.8 nM | COc1cc2c(cc1OC)C1=NO[C@@H](CN3CCN(C/C=C(\C)c4ccsc4)CC3)[C@@H]1CO2 |
| 0.5 nM | 0.4 nM | 0.16 mg/kg | 22 nM | COc1cc2c(cc1OC)C1=NO[C@@H](CN3CCN(C/C=C(\C)c4ccco4)CC3)[C@@H]1CO2 |
| 1.7 nM | 0.5 nM | 5 mg/kg | 21 nM | COc1cc2c(cc1OC)C1=NO[C@@H](CN3CCN(C/C(C)=C/c4ccco4)CC3)[C@@H]1CO2 |
| 1.7 nM | 0.2 nM | 0.63 mg/kg | 2.7 nM | COc1cc2c(cc1OC)C1=NO[C@@H](CN3CCN(C/C(C)=C/c4cccs4)CC3)[C@@H]1CO2 |
| 0.3 nM | 0.2 nM | 0.63 mg/kg | 74 nM | COc1cc2c(cc1OC)C1=NO[C@@H](CN3CCN(C/C=C(\C)c4cccs4)CC3)[C@@H]1CO2 |
| 1.1 nM | 0.2 nM | 1.25 mg/kg | 1.9 nM | COc1cc2c(cc1OC)C1=NO[C@@H](CN3CCN(C/C(C)=C/c4ccsc4)CC3)[C@@H]1CO2 |
|  |  | 0.3 mg/kg | 4.5 nM | COc1cc2c(cc1OC)C1=NO[C@@H](CN3CCN(C/C=C(\C)c4ccccc4)CC3)[C@@H]1CO2 |
| 2.9 nM | 0.3 nM | 1.25 mg/kg | 1.3 nM | COc1cc2c(cc1OC)C1=NO[C@@H](CN3CCN(C/C=C(\C)c4ccc(F)cc4)CC3)[C@@H]1CO2 |
